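A five-concentration, 48-hour dose response in 96-well plates underlies each endpoint, interpolated linearly between surrounding concentrations. Abbreviation: GI50, concentration required for 50% inhibition of growth.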 Active and inactive are the calls of the source. Rule as the data show it: active = GI50 up to about 1.1 µM and inactive = higher. Where a SMILES comes first, the peptide text is derived from it. The star is where a group is joined. Boc = CC(C)(C)OC(=O)*
Assays:
Assay in all cases: NCI tumour cell line growth inhibition, 48 h
BT-549 = system: BT-549
CAKI-1 = system: CAKI-1
DU-145 = system: DU-145
HL-60 = system: HL-60
HOP-62 = system: HOP-62
LOX IMVI = system: LOX IMVI
NCI-H226 = system: NCI-H226
NCI-H23 = system: NCI-H23
NCI/ADR-RES = system: NCI/ADR-RES
OVCAR-3 = system: OVCAR-3
SK-MEL-28 = system: SK-MEL-28
SK-MEL-5 = system: SK-MEL-5
SK-OV-3 = system: SK-OV-3
SNB-19 = system: SNB-19
T47D = system: T47D
TK-10 = system: TK-10
UO-31 = system: UO-31
RPMI-8226 = system: RPMI-8226
RXF 393 = system: RXF 393
SF-268 = system: SF-268

Measured: GI50

CC1=CC(=O)/C(=C/Nc2nc(-c3cccc([N+](=O)[O-])c3)cs2)C(=O)O1
inactive: BT-549 21.9 µM | CAKI-1 24.8 µM | DU-145 > 100 µM | HL-60 13.6 µM | HOP-62 > 100 µM | LOX IMVI 39.2 µM | NCI-H226 > 100 µM | NCI-H23 60.5 µM | NCI/ADR-RES 44.4 µM | OVCAR-3 > 100 µM | SK-MEL-28 > 100 µM | SK-MEL-5 54.2 µM | SK-OV-3 > 100 µM | SNB-19 > 100 µM | T47D 77.1 µM | TK-10 1.93 µM | UO-31 29.9 µM

COC(=O)C1=C(C(=O)OC)C2OC1C1C2C2(C)C(C)=C(C)C1(C)[S+]2[O-] (stereo not drawn)
inactive: BT-549 10.4 µM | CAKI-1 4.93 µM | DU-145 6.62 µM | HOP-62 20.2 µM | LOX IMVI 16.6 µM | NCI-H226 8.02 µM | NCI-H23 6.93 µM | NCI/ADR-RES 23.7 µM | OVCAR-3 9.02 µM | RPMI-8226 4.73 µM | RXF 393 3.37 µM | SF-268 9.55 µM | SK-MEL-28 19.1 µM | SK-MEL-5 7.62 µM | SK-OV-3 37.9 µM | SNB-19 30.3 µM | T47D 6.71 µM | TK-10 12.2 µM | UO-31 4.21 µM

COC(=O)c1c2n(c3ccccc13)C[C@H]1OC(C)(C)O[C@@H]21
inactive: BT-549 > 100 µM | CAKI-1 > 65.6 µM | DU-145 > 100 µM | HOP-62 > 100 µM | LOX IMVI > 100 µM | NCI-H226 > 100 µM | NCI-H23 > 100 µM | NCI/ADR-RES > 100 µM | OVCAR-3 > 100 µM | RPMI-8226 > 100 µM | RXF 393 > 100 µM | SF-268 > 100 µM | SK-MEL-28 > 100 µM | SK-MEL-5 > 100 µM | SK-OV-3 > 100 µM | SNB-19 > 100 µM | T47D > 100 µM | TK-10 > 100 µM | UO-31 > 100 µM

CC(C)=CCc1c(OC(=O)c2c(C)cc(O)cc2O)cc(CO)c(CO)c1O
inactive: BT-549 18.7 µM | CAKI-1 5.48 µM | DU-145 25.1 µM | HL-60 4.5 µM | LOX IMVI 16.2 µM | NCI-H226 34 µM | NCI-H23 16.8 µM | NCI/ADR-RES 30.1 µM | SF-268 26.7 µM | SK-MEL-28 18.5 µM | SK-MEL-5 14.8 µM | SK-OV-3 16.2 µM | SNB-19 8.07 µM | T47D 6.85 µM | TK-10 26.3 µM | UO-31 12.2 µM

CC(NC(=O)C(NC(=O)OC(C)(C)C)C(C)C)C(=O)NCC(=O)O (stereo not drawn) (Boc-Val-Ala-Gly-OH; configuration not given here)
inactive: BT-549 > 100 µM | CAKI-1 > 100 µM | DU-145 > 100 µM | HOP-62 > 100 µM | NCI-H226 > 10 µM | NCI-H23 > 100 µM | NCI/ADR-RES > 100 µM | OVCAR-3 > 100 µM | RPMI-8226 > 100 µM | RXF 393 > 100 µM | SF-268 > 100 µM | SK-MEL-28 > 100 µM | SK-MEL-5 > 100 µM | SK-OV-3 > 100 µM | SNB-19 > 100 µM | T47D > 100 µM | TK-10 > 100 µM | UO-31 > 100 µM

C(#Cc1ccccc1)SC1=C(c2ccccc2)S/C(=C(\SC#Cc2ccccc2)c2ccccc2)S1
inactive: BT-549 > 100 µM | CAKI-1 > 100 µM | DU-145 > 100 µM | HOP-62 > 100 µM | LOX IMVI > 100 µM | NCI-H226 > 100 µM | NCI-H23 > 100 µM | NCI/ADR-RES > 100 µM | OVCAR-3 > 100 µM | SF-268 > 100 µM | SK-MEL-28 > 100 µM | SK-MEL-5 > 100 µM | SK-OV-3 > 100 µM | SNB-19 > 100 µM | T47D > 100 µM | TK-10 > 100 µM | UO-31 > 100 µM

COc1ccccc1/C=C/c1nc2ccccc2o1
inactive: BT-549 > 10 µM | CAKI-1 > 10 µM | DU-145 > 10 µM | HOP-62 > 10 µM | LOX IMVI > 10 µM | NCI-H226 > 10 µM | NCI-H23 > 10 µM | NCI/ADR-RES > 10 µM | OVCAR-3 > 10 µM | RPMI-8226 > 10 µM | RXF 393 > 10 µM | SF-268 > 10 µM | SK-MEL-28 > 10 µM | SK-MEL-5 > 10 µM | SK-OV-3 > 10 µM | SNB-19 > 10 µM | T47D > 10 µM | TK-10 > 10 µM

CCC1C(c2ccccc2O)c2cc3c(cc2OC1N1CCOCC1)OCO3 (stereo not drawn)
inactive: BT-549 15.6 µM | CAKI-1 16.6 µM | DU-145 14.8 µM | HL-60 18.2 µM | HOP-62 15.4 µM | LOX IMVI 14.9 µM | NCI-H226 15.7 µM | NCI-H23 18.2 µM | OVCAR-3 12.5 µM | RPMI-8226 13.9 µM | RXF 393 13.3 µM | SF-268 14.7 µM | SK-MEL-28 17.6 µM | SK-MEL-5 16.7 µM | SK-OV-3 22.2 µM | SNB-19 15.3 µM | T47D 13.2 µM | TK-10 13.9 µM | UO-31 13.9 µM

CCOC(=O)C1(C(=O)OCC)CCCN1C(=O)[C@H](CNC(=O)OC(C)(C)C)NC(=O)OCc1ccccc1
inactive: BT-549 > 100 µM | CAKI-1 > 100 µM | DU-145 > 100 µM | HOP-62 > 100 µM | LOX IMVI > 100 µM | NCI-H226 > 100 µM | NCI-H23 > 100 µM | NCI/ADR-RES > 100 µM | OVCAR-3 > 100 µM | RPMI-8226 31.3 µM | RXF 393 > 100 µM | SF-268 > 100 µM | SK-MEL-28 > 100 µM | SK-MEL-5 > 100 µM | SK-OV-3 > 100 µM | SNB-19 > 100 µM | T47D > 100 µM | TK-10 > 100 µM | UO-31 > 100 µM

COC(OC)[C@@H]1OC[C@@H](O)[C@@H]1n1cnc2c(N)ncnc21
inactive: BT-549 > 100 µM | CAKI-1 > 100 µM | DU-145 > 100 µM | HOP-62 > 100 µM | LOX IMVI > 100 µM | NCI-H226 > 100 µM | NCI-H23 > 100 µM | NCI/ADR-RES > 100 µM | OVCAR-3 > 100 µM | RPMI-8226 > 100 µM | RXF 393 > 100 µM | SF-268 > 100 µM | SK-MEL-28 > 100 µM | SK-MEL-5 > 100 µM | SK-OV-3 > 100 µM | T47D > 100 µM | TK-10 > 100 µM | UO-31 > 100 µM

NC(=O)NNC(=O)c1nc[nH]c1[N+](=O)[O-]
inactive: BT-549 > 100 µM | CAKI-1 > 100 µM | DU-145 > 100 µM | HOP-62 > 100 µM | LOX IMVI > 100 µM | NCI-H226 > 100 µM | NCI-H23 > 100 µM | NCI/ADR-RES > 100 µM | OVCAR-3 > 100 µM | RPMI-8226 > 100 µM | RXF 393 > 100 µM | SF-268 > 100 µM | SK-MEL-28 > 100 µM | SK-MEL-5 > 100 µM | SK-OV-3 > 100 µM | T47D > 100 µM | TK-10 > 100 µM | UO-31 > 100 µM
